Reference: patent US10100022B2, “Sphingosine kinase inhibitors” (University of Virginia Patent Foundation, priority 2014, dated 2018)

Tests used:
[1] = biological target: T1, human sphingosine kinase type 2 (hSPHK2) (Homo sapiens, UniProt Q9NRA0); assay: Sphingosine kinase assay, recombinant human SPHK2 ([32P]S1P product, scintillation counting); assay type: biochemical; settings: read-out: activity hSPHK2 (range estimate of KI)
T1 construct: purchased; host or cells: Sf9 insect cells (baculovirus)
T1 sequence (Q9NRA0 1-654): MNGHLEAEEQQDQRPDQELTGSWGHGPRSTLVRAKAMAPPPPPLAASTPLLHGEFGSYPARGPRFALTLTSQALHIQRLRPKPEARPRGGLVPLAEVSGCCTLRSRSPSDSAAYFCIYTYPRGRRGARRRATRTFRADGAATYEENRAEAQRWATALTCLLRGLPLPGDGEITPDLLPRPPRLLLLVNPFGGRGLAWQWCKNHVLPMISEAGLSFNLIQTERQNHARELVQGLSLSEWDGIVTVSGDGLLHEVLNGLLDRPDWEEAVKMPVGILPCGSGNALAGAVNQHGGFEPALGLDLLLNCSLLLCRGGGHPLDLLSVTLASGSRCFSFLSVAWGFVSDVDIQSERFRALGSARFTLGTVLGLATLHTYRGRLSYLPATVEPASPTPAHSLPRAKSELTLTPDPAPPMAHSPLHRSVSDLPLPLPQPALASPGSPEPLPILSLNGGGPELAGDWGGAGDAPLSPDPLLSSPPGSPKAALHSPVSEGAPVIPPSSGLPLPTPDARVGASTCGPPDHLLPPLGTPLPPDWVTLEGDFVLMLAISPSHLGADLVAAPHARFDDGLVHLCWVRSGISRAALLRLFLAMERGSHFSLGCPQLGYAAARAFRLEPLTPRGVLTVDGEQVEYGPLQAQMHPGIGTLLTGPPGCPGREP
Experimental: (§1) Recombinant baculovirus encoding human sphingosine kinase type 1 (SPHK1) was used to infect Sf9 insect cells and after 2-5 days, cleared lysates were prepared and used without further purification. Human SPHK2, which was partially purified from baculovirus-infected Sf9 cell lysates, was purchased from a commercial source. Sphingosine kinase assays were performed using standard protocols. Product [^32P]S1P was recovered by binding to cation exchange paper and quantified by scintillation counting.

[2] = biological target: T2, human sphingosine kinase type 1 (hSPHK1) (Homo sapiens, UniProt Q9NYA1); assay: Sphingosine kinase assay, recombinant human SPHK1 ([32P]S1P product, scintillation counting); assay type: biochemical; settings: read-out: activity hSPHK1 (range estimate of KI)
T2 construct: made in house; host or cells: Sf9 insect cells (baculovirus)
Experimental: as §1

T2 sequence (Q9NYA1 whole entry): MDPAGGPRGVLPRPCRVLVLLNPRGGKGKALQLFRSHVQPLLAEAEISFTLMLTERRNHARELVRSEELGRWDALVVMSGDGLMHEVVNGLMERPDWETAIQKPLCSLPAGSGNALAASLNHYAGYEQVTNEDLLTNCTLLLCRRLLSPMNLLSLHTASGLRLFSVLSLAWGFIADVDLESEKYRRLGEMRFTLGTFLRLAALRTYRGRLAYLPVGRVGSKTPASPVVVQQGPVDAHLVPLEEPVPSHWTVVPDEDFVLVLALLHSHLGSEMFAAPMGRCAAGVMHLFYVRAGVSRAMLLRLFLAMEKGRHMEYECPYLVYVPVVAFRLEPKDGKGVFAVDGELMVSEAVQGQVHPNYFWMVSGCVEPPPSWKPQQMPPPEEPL

SMILES	Ki [1] [µM]	Ki [2] [µM]
CCCCCCCn1cc(-c2noc([C@@H]3CCCN3C(=N)N)n2)c2ccccc21 [Compound 1A, (S)-amino(2-(3-(1-heptyl-1H-indol-3-yl)-1,2,4-oxadiazol-5-yl)pyrrolidin-1-yl)methaniminium chloride]	> 10	> 10
CCCCCCCCCOc1ccc(-c2noc([C@@H]3CCCN3C(=N)N)n2)cc1C(F)(F)F [Compound 1B]	< 1	> 10
CCCCCCCCCn1cc(-c2noc([C@@H]3CCCN3C(=N)N)n2)c2ccccc21 [Compound 2A, (S)-amino(2-(3-(1-nonyl-1H-indol-3-yl)-1,2,4-oxadiazol-5-yl)pyrrolidin-1-yl)methaniminium chloride]	> 10	> 10
CCCCCCCCOc1ccc(-c2noc([C@@H]3CCCN3C(=N)N)n2)cc1C(F)(F)F [Compound 2B]		> 10
CCCCCCCCCCCCn1cc(-c2noc([C@@H]3CCCN3C(=N)N)n2)c2ccccc21 [Compound 3A, (S)-amino(2-(3-(1-dodecyl-1H-indol-3-yl)-1,2,4-oxadiazol-5-yl)pyrrolidin-1-yl)methaniminium chloride]	< 1	
CCCCCCCCCc1ccc(-c2noc([C@@H]3CCCN3C(=N)N)n2)cc1C(F)(F)F [Compound 3B]	< 1	> 10
CCCCCCCCCCCn1cc(-c2noc([C@@H]3CCCN3C(=N)N)n2)c2ccccc21 [Compound 4A, (S)-amino(2-(3-(1-undecyl-1H-indol-3-yl)-1,2,4-oxadiazol-5-yl)pyrrolidin-1-yl)methaniminium chloride]	1 to 10	> 10
CCCCCCCCOc1ccc(-c2noc([C@@H]3CCCN3C(=N)N)n2)cc1Br [Compound 4B]	< 1	> 10
CCCCCCCCc1ccc(-c2noc([C@@H]3CCCN3C(=N)N)n2)cc1C(F)(F)F [Compound 5A, (S)-Amino(2-(3-(4-octyl-3-(trifluoromethyl)phenyl)-1,2,4-oxadiazol-5-yl)pyrrolidin-1-yl)methaniminium chloride]	< 1	> 10
CCCCCCCCOc1ccc(-c2nnc([C@@H]3CCCN3C(=N)N)s2)cc1C(F)(F)F [Compound 5B]	< 1	> 10
CCCCCCCCOc1ccc(-c2noc([C@@H]3CCCN3C(=N)N)n2)cc1C [Compound 6B]	< 1	> 10
CCCCCCCCCCn1cc(-c2noc([C@@H]3CCCN3C(=N)N)n2)c2ccccc21 [Compound 7A, (S)-amino(2-(3-(1-decyl-1H-indol-3-yl)-1,2,4-oxadiazol-5-yl)pyrrolidin-1-yl)methaniminium chloride]	< 1	
CCCCCCCCOc1c(C)cc(-c2noc([C@@H]3CCCN3C(=N)N)n2)cc1C [Compound 7B]	< 1	> 10
CCCCCCCCOc1ccc(-c2noc([C@@H]3C[C@@H](O)CN3C(=N)N)n2)cc1C(F)(F)F [Compound 8A, amino((2S,4R)-4-hydroxy-2-(3-(4-(octyloxy)-3-(trifluoromethyl)phenyl)-1,2,4-oxadiazol-5-yl)pyrrolidin-1-yl)methaniminium chloride]	< 1	> 10
CCCCCCCn1ccc2c(-c3noc([C@@H]4CCCN4C(=N)N)n3)cccc21 [Compound 8B, (S)-amino(2-(3-(1-heptyl-1H-indol-4-yl)-1,2,4-oxadiazol-5-yl)pyrrolidin-1-yl)methaniminium chloride]	< 1	> 10
CCCCCCCCOc1ccc(-c2noc([C@@H]3C[C@H](O)CN3C(=N)N)n2)cc1C(F)(F)F [Compound 9A, amino((2S,4S)-4-hydroxy-2-(3-(4-(octyloxy)-3-(trifluoromethyl)phenyl)-1,2,4-oxadiazol-5-yl)pyrrolidin-1-yl)methaniminium chloride]	> 10	> 10

SMILES	Ki [1] [µM]	Ki [2] [µM]
CCCCCCCCn1ccc2c(-c3noc([C@@H]4CCCN4C(=N)N)n3)cccc21 [Compound 9B, (S)-amino(2-(3-(1-octyl-1H-indol-4-yl)-1,2,4-oxadiazol-5-yl)pyrrolidin-1-yl)methaniminium chloride]	< 1	> 10
CCCCCCCCOc1ccc(-c2noc([C@@H]3[C@H](O)CCN3C(=N)N)n2)cc1C(F)(F)F [Compound 10A, amino((2S,3R)-3-hydroxy-2-(3-(4-(octyloxy)-3-(trifluoromethyl)phenyl)-1,2,4-oxadiazol-5-yl)pyrrolidin-1-yl)methaniminium chloride]	> 10	> 10
CCCCCCCCCn1ccc2c(-c3noc([C@@H]4CCCN4C(=N)N)n3)cccc21 [Compound 10B, (S)-amino(2-(3-(1-nonyl-1H-indol-4-yl)-1,2,4-oxadiazol-5-yl)pyrrolidin-1-yl)methaniminium chloride]	< 1	> 10
CCCCCCCCOc1ccc(-c2noc([C@@H]3CCCN3C(=N)N)n2)cc1F [Compound 11A, (S)-Amino(2-(3-(3-fluoro-4-(octyloxy)phenyl)-1,2,4-oxadiazol-5-yl)pyrrolidin-1-yl)methaniminium chloride]	> 10	> 10
CCCCCCCCCCn1ccc2c(-c3noc([C@@H]4CCCN4C(=N)N)n3)cccc21 [Compound 11B, (S)-amino(2-(3-(1-decyl-1H-indol-4-yl)-1,2,4-oxadiazol-5-yl)pyrrolidin-1-yl)methaniminium chloride]	< 1	> 10
CCCCCOc1ccc2cc(-c3noc([C@@H]4CCCN4C(=N)N)n3)ccc2c1 [Compound 12A, (S)-amino(2-(3-(6-(pentyloxy)naphthalen-2-yl)-1,2,4-oxadiazol-5-yl)pyrrolidin-1-yl)methaniminium chloride]	> 10	> 10
CCCCCCOc1ccc(-c2noc([C@@H]3CCCN3C(=N)N)n2)cc1C(F)(F)F [Compound 12B]	< 1	1 to 10
CCCCCCCOc1ccc2cc(-c3noc([C@@H]4CCCN4C(=N)N)n3)ccc2c1 [Compound 13A, (S)-amino(2-(3-(6-(heptyloxy)naphthalen-2-yl)-1,2,4-oxadiazol-5-yl)pyrrolidin-1-yl)methaniminium chloride]	1 to 10	> 10
CCCCCCCCOc1ccc(-c2noc([C@@H]3CCN3C(=N)N)n2)cc1C(F)(F)F [Compound 13B]	< 1	1 to 10
CC(C)COc1ccc2cc(-c3noc([C@@H]4CCCN4C(=N)N)n3)ccc2c1 [Compound 14A, (S)-amino(2-(3-(6-isobutoxynaphthalen-2-yl)-1,2,4-oxadiazol-5-yl)pyrrolidin-1-yl)methaniminium chloride]	> 10	> 10
CCCCCOc1ccc2cc(-c3noc([C@@H]4[C@@H](O)CCN4C(=N)N)n3)ccc2c1 [Compound 14B, Amino((2S,3S)-3-hydroxy-2-(3-(6-(pentyloxy)naphthalen-2-yl)-1,2,4-oxadiazol-5-yl)pyrrolidin-1-yl)methaniminium chloride]	< 1	< 1
CC(C)COc1ccc2cc(-c3noc([C@@H]4[C@@H](O)CCN4C(=N)N)n3)ccc2c1 [Compound 15A, Amino((2S,3S)-3-hydroxy-2-(3-(6-isobutoxynaphthalen-2-yl)-1,2,4-oxadiazol-5-yl)pyrrolidin-1-yl)methaniminium chloride]	> 10	1 to 10
CCCCCCOc1ccc2cc(-c3noc([C@@H]4CCCN4C(=N)N)n3)ccc2c1 [Compound 16A, (S)-amino(2-(3-(6-(hexyloxy)naphthalen-2-yl)-1,2,4-oxadiazol-5-yl)pyrrolidin-1-yl)methaniminium chloride]	> 10	> 10
N=C(N)N1CCC[C@H]1c1nc(-c2ccc3cc(OCc4ccc(C(F)(F)F)cc4)ccc3c2)no1 [Compound 52A, (S)-amino(2-(3-(6-((4-(trifluoromethyl)benzyl)oxy)naphthalen-2-yl)-1,2,4-oxadiazol-5-yl)pyrrolidin-1-yl)methaniminium chloride]	1 to 10	
CCCCOc1ccc2cc(-c3noc([C@@H]4CCCN4C(=N)N)n3)ccc2c1 [Compound 56A, (S)-amino(2-(3-(6-(butyloxy)naphthalen-2-yl)-1,2,4-oxadiazol-5-yl)pyrrolidin-1-yl)methaniminium chloride]	1 to 10	
CC1(C)CCC(C)(C)c2cc(COc3ccc4cc(-c5noc([C@@H]6CCCN6C(=N)N)n5)ccc4c3)ccc21 [Compound 71A, (S)-amino(2-(3-(6-((5,5,8,8-tetramethyl-5,6,7,8-tetrahydronaphthalen-2-yl)methoxy)naphthalen-2-yl)-1,2,4-oxadiazol-5-yl)pyrrolidin-1-yl)methaniminium chloride]	> 10	
